Assay results reported in paper PMC10648852, “Molecular drivers of resistance to sulbactam-durlobactam in contemporary clinical isolates of Acinetobacter baumannii” (Antimicrobial Agents and Chemotherapy, 2023).
Where two headings read alike, the source gives them in different places.

What was measured:
[1] = tested on: A. baumannii PBP3 S395F; design: method as in McLeod et al. (2018); conditions: average ± SD, ref McLeod et al. (2018); cited from earlier work
[2] = tested on: A. baumannii wild-type PBP3; assay: Acylation rate constant (kinact/Ki), fluorescence anisotropy competition with BOCILLIN; conditions: Wildtype PBP3
[3] = tested on: A. baumannii PBP3 H370Y; assay: as above
[4] = tested on: A. nosocomialis clinical isolate; assay: microbe, parasite or virus in culture; format: cell-based; conditions: Acinetobacter nosocomialis, isolate ARC7023 (IHMA 2118812), France, BSI, 2019, read-out: MIC
Summary of the method: (§1)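 SUL-DUR combines serially twofold-diluted sulbactam with durlobactam held at 4 µg/mL; MICs obtained by CLSI-standard broth microdilution and read against CLSI breakpoints when these exist.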

[5] = tested on: A. baumannii clinical isolates; assay: microbe, parasite or virus in culture; format: cell-based; conditions: Acinetobacter baumannii
Summary of the method: as §1

Structure (SMILES): C[C@@H](O)[C@H]1C(=O)N2C(C(=O)O)=C(S[C@@H]3CN[C@H](C(=O)N(C)C)C3)[C@H](C)[C@H]12 [meropenem]
- k inact/K i [1]: 1,500 ± 200 ([3]) M^-1s^-1
- % WT [2]: 100%
- k inact/K i ([2]; average ± SD): 5,000 ± 1,000 ([10]) M^-1s^-1
- % WT [3]: 120%
- k inact/K i ([3]; average ± SD): 6,000 ± 10 ([2]) M^-1s^-1
- MIC [4]: > 64 µg/mL
- MIC ([5]; isolate ARC6644 (IHMA 1420327), Mexico, UTI, 2016, read-out: MIC): 64 µg/mL
- MIC ([5]; isolate ARC6645 (IHMA 1435703), France, UTI, 2016, read-out: MIC): > 64 µg/mL
- MIC ([5]; isolate ARC6646 (IHMA 1484127), United States, RTI, 2016, read-out: MIC): 64 µg/mL
- MIC ([5]; isolate ARC6647 (IHMA 1386786), Argentina, RTI, 2016, read-out: MIC): > 64 µg/mL
- MIC ([5]; isolate ARC6648 (IHMA 1407634), Spain, RTI, 2016, read-out: MIC): > 64 µg/mL
- MIC ([5]; isolate ARC6650 (IHMA 1457337), Argentina, RTI, 2016, read-out: MIC): 64 µg/mL
- MIC ([5]; isolate ARC6652 (IHMA 1465642), Belgium, RTI, 2016, read-out: MIC): > 64 µg/mL
- MIC ([5]; isolate ARC6653 (IHMA 1308777), Vietnam, RTI, 2016, read-out: MIC): > 64 µg/mL
- MIC ([5]; isolate ARC6799 (IHMA 1562935), Spain, UTI, 2017, read-out: MIC): 64 µg/mL
- MIC ([5]; isolate ARC6800 (IHMA 1557526), Turkey, RTI, 2017, read-out: MIC): 64 µg/mL
- MIC ([5]; isolate ARC6801 (IHMA 1662094), Thailand, RTI, 2017, read-out: MIC): > 64 µg/mL
- MIC ([5]; isolate ARC6802 (IHMA 1557073), Spain, UTI, 2017, read-out: MIC): 64 µg/mL
- MIC ([5]; isolate ARC6803 (IHMA 1589408), Belgium, UTI, 2017, read-out: MIC): > 64 µg/mL
- MIC ([5]; isolate ARC6805 (IHMA 1558650), United States, RTI, 2017, read-out: MIC): 64 µg/mL
- MIC ([5]; isolate ARC6808 (IHMA 1557168), Spain, RTI, 2017, read-out: MIC): 64 µg/mL
- MIC ([5]; isolate ARC6809 (IHMA 1699528), Guatemala, RTI, 2017, read-out: MIC): > 64 µg/mL
- MIC ([5]; isolate ARC6810 (IHMA 1699548), Guatemala, RTI, 2017, read-out: MIC): > 64 µg/mL
- MIC ([5]; isolate ARC6812 (IHMA 1699530), Guatemala, RTI, 2017, read-out: MIC): > 64 µg/mL
- MIC ([5]; isolate ARC6813 (IHMA 1699543), Guatemala, UTI, 2017, read-out: MIC): > 64 µg/mL
- MIC ([5]; isolate ARC6814 (IHMA 1699512), Guatemala, RTI, 2017, read-out: MIC): > 64 µg/mL
- MIC ([5]; isolate ARC6815 (IHMA 1699513), Guatemala, RTI, 2017, read-out: MIC): > 64 µg/mL
- MIC ([5]; isolate ARC6816 (IHMA 1699521), Guatemala, RTI, 2017, read-out: MIC): > 64 µg/mL
- MIC ([5]; isolate ARC6817 (IHMA 1699523), Guatemala, RTI, 2017, read-out: MIC): > 64 µg/mL
- MIC ([5]; isolate ARC6818 (IHMA 1683261), Thailand, RTI, 2017, read-out: MIC): > 64 µg/mL
- MIC ([5]; isolate ARC6819 (IHMA 1683267), Thailand, RTI, 2017, read-out: MIC): > 64 µg/mL
- MIC ([5]; isolate ARC6820 (IHMA 1647876), Argentina, RTI, 2017, read-out: MIC): 64 µg/mL
- MIC ([5]; isolate ARC6821 (IHMA 1699517), Guatemala, RTI, 2017, read-out: MIC): > 64 µg/mL
- MIC ([5]; isolate ARC6822 (IHMA 1637626), Guatemala, RTI, 2017, read-out: MIC): > 64 µg/mL
- MIC ([5]; isolate ARC6823 (IHMA 1620872), Greece, SSSI, 2017, read-out: MIC): > 64 µg/mL
- MIC ([5]; isolate ARC6824 (IHMA 1625487), Argentina, BSI, 2017, read-out: MIC): > 64 µg/mL
- MIC ([5]; isolate ARC6937 (IHMA 1562926), Spain, UTI, 2017, read-out: MIC): 64 µg/mL
- MIC ([5]; isolate ARC6950 (IHMA 1820064), Israel, RTI, 2018, read-out: MIC): > 64 µg/mL
- MIC ([5]; isolate ARC6953 (IHMA 1909827), Turkey, IAI, 2018, read-out: MIC): > 64 µg/mL
- MIC ([5]; isolate ARC6954 (IHMA 1838192), Guatemala, SSSI, 2018, read-out: MIC): > 64 µg/mL
- MIC ([5]; isolate ARC6955 (IHMA 1825425), United States, RTI, 2018, read-out: MIC): 64 µg/mL
- MIC ([5]; isolate ARC7008 (IHMA 2009813), Thailand, BSI, 2019, read-out: MIC): > 64 µg/mL
- MIC ([5]; isolate ARC7009 (IHMA 2043611), United States, UTI, 2019, read-out: MIC): > 64 µg/mL
- MIC ([5]; isolate ARC7010 (IHMA 2043398), United States, RTI, 2019, read-out: MIC): > 64 µg/mL
- MIC ([5]; isolate ARC7011 (IHMA 2104553), Germany, RTI, 2019, read-out: MIC): > 64 µg/mL
- MIC ([5]; isolate ARC7012 (IHMA 2010001), Thailand, RTI, 2019, read-out: MIC): > 64 µg/mL
- MIC ([5]; isolate ARC7013 (IHMA 1962831), Argentina, RTI, 2019, read-out: MIC): > 64 µg/mL
